{"source": "ChEMBL document CHEMBL1151282", "about": "“Flavonoids and benzene derivatives from the flowers and fruit of Tetrapanax papyriferus” (J Nat Prod, 2005)"}
{"experiment": "Toxicity in brine shrimp after 24 hrs", "format": "organism-based", "details": "artemia, in vivo", "units": {"LC50 at 24 h": "µM"}}
{"smiles": "C[C@@H]1O[C@@H](Oc2cc(O)c3c(=O)c(O)c(-c4ccc(O)cc4)oc3c2)[C@H](OC(=O)/C=C/c2ccc(O)cc2)[C@H](OC(=O)/C=C/c2ccc(O)cc2)[C@H]1O", "LC50 at 24 h": 400}
{"smiles": "C[C@@H]1O[C@@H](Oc2cc(O)c3c(=O)c(O)c(-c4ccc(O)cc4)oc3c2)[C@H](OC(=O)/C=C/c2ccc(O)cc2)[C@H](O)[C@H]1O", "LC50 at 24 h": 570}
{"smiles": "CC(=O)Oc1ccc(-c2oc3cc(OC(C)=O)cc(O)c3c(=O)c2OC(C)=O)cc1", "LC50 at 24 h": 2210}
